Data as given in patent EP1261587B1, “STILBENE DERIVATIVES, THEIR PREPARATION AND THEIR USE AS ANTIVIRAL AGENTS” (priority 1999, dated 2001).
pIC50: −log10 of the molar value. Counter-ions that a name gives are not always drawn. Like-named read-outs stand apart in the source and are kept apart here.

Key:
[1] = target: T1, Tat-TAR complex (recombinant Tat, synthetic TAR duplex) (Human immunodeficiency virus type 1 group M subtype B, UniProt P04608); assay: competition Tat-TAR gel-shift assay; assay type: binding, HIV-1
T1 construct: purchased Medical Research Council (MRC), Cambridge, U.K
Text: The in vitro inhibition of the interaction between Tat and TAR can be shown by a competition Tat-TAR gel-shift assay. Through binding of the protein (recombinant Tat, Medical Research Council (MRC), Cambridge, U.K. - for the sequence of recombinant Tat see Churcher et al., J. Mol. Biol. 230, 90-110 (1993)) to the RNA (synthetic TAR duplex, Genset, Paris, France; for the sequence see Hamy et al., J. Mol. Biol. 230, 111-123 (1993)), the overall size and the charge/weight ratio of the formed duplex are changed, so that electrophoretic migration through a native polyacrylamide gel is affected. By radioactive labelling of the RNA and subsequent autoradiography, free RNA and complexes can be discriminated based on their relative positions in the gel (Hamy et al., J. Mol. Biol. 230, 111-123 (1993)). If the binding reaction with a test substance is able to prevent the protein binding to the radiolabelled RNA, this competition for binding can be visualized on the autoradiography as a decreased intensity of the retarded band. In more detail, compounds of the formula I are tested as follows:
The 14-mer strand of duplex TAR-RNA is labelled in the presence of T4 polynucleotide kinase (New England Biolabs, Beverly, MA, USA) using [γ-^32P]ATP (Amersham, Little Chalfont, UK), 10 mM DTT (=dithiothreitol), 50 mM Tris.HCI (pH 7.4, Tris = Tris(hydroxymethyl)aminomethane), 0.77 % (w/v) spermidine (Fluka, Switzerland) and 10 units T4 polynucleotide kinase incubated at 37 °C for 20 min. After heat-treatment (65 °C, 10 min) for enzyme inactivation, the unincorporated [γ-^32P]ATP is removed by chromatography through a Sephadex NAP-10 column (Pharmacia, Uppsala, Sweden) equilibrated with water. Prior to the in-vitro-binding reaction, the labelled 14-mer is annealed to 1.5 equivalents of unlabelled 17-mer by heating to 90 C for 3 min, followed by slow cooling down to 0 °C. […] The CD50-values that are obtained are preferably in the range of from 10 x 10^-9 to 10 x 10^-6 M, more preferably from 10 x 10^-9 to 0.5 x 10^-6 M.

HIV-1/LAV.04 = assay: inhibition of viral growth of HIV-1 in PBLs (RT activity in cell supernatants); assay type: cell-based; details: concentration at which 90 % reduction of RT activity versus untreated control is observed; human PBLs infected with HIV-1/LAV.04
Experimental: In brief, Peripheral Blood Mononuclear Lymphocytes (PBLs) are obtained from the blood of healthy volunteers by leukapheresis. Cells (1 x 10^6/ml) are cultured for 2 days in RPMI-1640 (Gibco), supplemented with 10 % heat-inactivated fetal calf serum (Gibco), 50 mg/ml streptomycin, 50 U/ml penicillin (Amimed), 2 nM glutamine and 10 mM hepes buffer (Gibco). Stimulated lymphocytes are obtained by culturing in the presence of PHA (0.25 mg/ml; Wellcome diagnostics, Templehill, Dartford, England). PHA-lymphocyte stimulation is confirmed by the increase in cell size (Scattergram, FACS analysis). Cells are exposed to HIV-1/LAV.04 (see Barre-Sinoussi et al., Science 220, 868-871 (1983)) for 6 h. […] Medium is changed every 3 days and activity of viral reverse transcriptase (RT activity) is determined in cell supernatants, serving as a measure for the presence of virus and thus of progression of infection according to known procedures (see Willey et al., J. Virol. 62, 353-8 (1991) for details of the method). In brief, RT determination is possible as follows: The RT activity is determined in 50mM Tris (α,α,α--tris(hydroxymethyl)methylamine, ultra pure, Merck, Federal Republic of Germany) pH 7.8; 75mM of KCl, 2mM of dithiothreitol, 5mM of MgCl2; 0.05% Nonidet P-40 (detergent; Sigma, Switzerland); 50 µg/ml of polyadenylic acid (Pharmacia, Sweden); and 1.6 µg/ml of dT(12-18) (Sigma, Switzerland). […]

[2] = maximal tolerated dose (MTD) determination in mice; assay type: in vivo
Experimental: After single application of up to 50 mg/kg by i.v. administration to mice no signs of overt toxicity are observed during 8 days of observation. In detail, the assay is conducted as follows: The assay is designed for the determination of the maximal tolerated dose (MTD) For the MTD determination, three six to eight week old female Balb/c AnCbif Tif mice (Ciba animal farm, Sisseln, Switzerland) per dose group are treated once i.v. The dosage is increased until toxic effects are observed within 7 days after drug treatment. After 7 days the animals are euthanasized and organs are macroscopically inspected. The MTD is the dose where all three animals still survive. For example, when the compounds of examples 2 or 4, trans-5-(Acetoacetylamino)-2-[2-{4-(4,5-dihydro-3-methyl-5-oxo-1H-pyrazol-1-yl)-2-sulfophenyl]ethenyl]-benzenesulfonic acid or N,N'-Bis(trans-4-{2-[4-(3-methyl-5-oxo-4,5-dihydro-1H.-pyrazol-1-yl)-2-sulfo-phenyl]-vinyl}-2-sulfophenyl)-[1,3,5]triazine-2,4,6-triamine, are dissolved in sterile sodium chloride solution 0.9%, the MTD after i.v. administration is > 50 mg/kg.

[3] = concentration giving 50 % decrease in intensity of the retarded band (Tat-TAR complex), 20 nM recombinant Tat, read-out: CD50 (the source's name)

T1 sequence (P04608 whole entry, one chain of several): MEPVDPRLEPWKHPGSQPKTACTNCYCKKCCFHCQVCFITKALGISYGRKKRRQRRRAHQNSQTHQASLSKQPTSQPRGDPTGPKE

SMILES | pIC50 [1] | ED90 (HIV-1/LAV.04) | MTD at 7 days ([2]; female, Balb/c AnCbif Tif, mouse, in vivo, iv) | pIC50 [1, 3] | MTD ([2]; single i.v. administration, female mice, dissolved in sterile sodium chloride solution 0.9%, dose where all three animals still survive, 10080 min)
CC(=O)CC(=O)Nc1ccc(/C=C/c2ccc(N3N=C(C)CC3=O)cc2S(=O)(=O)O)c(S(=O)(=O)O)c1 [Example 2, trans-5-(Acetoacetylamino)-2-[2-{4-(4,5-dihydro-3-methyl-5-oxo-1H-pyrazol-1-yl)-2-sulfophenyl}ethenyl]-benzenesulfonic acid] | 7.70 | 30000 nM | > 50 mg/kg | – | –
CC1=NN(c2ccc(/C=C/c3ccc(Nc4nc(Cl)nc(Nc5ccc(/C=C/c6ccc(N7N=C(C)CC7=O)cc6S(=O)(=O)O)cc5S(=O)(=O)O)n4)c(S(=O)(=O)O)c3)c(S(=O)(=O)O)c2)C(=O)C1 [Example 3, N,N'-Bis(trans-4-{2-[4-(3-methyl-5-oxo-4,5-dihydro-1.H.-pyrazol-1-yl)-2-sulfophenyl]-vinyl}-2-sulfophenyl)-2-chloro-[1,3,5]triazine-4,6-diamine] | – | 20000 nM | – | 7.30 | –
CC1=NN(c2ccc(/C=C/c3ccc(Nc4nc(N)nc(Nc5ccc(/C=C/c6ccc(N7N=C(C)CC7=O)cc6S(=O)(=O)O)cc5S(=O)(=O)O)n4)c(S(=O)(=O)O)c3)c(S(=O)(=O)O)c2)C(=O)C1 [Example 4, N,N'-Bis(trans-4-{2-[4-(3-methyl-5-oxo-4,5-dihydro-1.H.-pyrazol-1-yl)-2-sulfophenyl]-vinyl}-2-sulfophenyl)-[1,3,5]triazine-2,4,6-triamine] | – | – | – | 7.30 | > 50 mg/kg
CC1=NN(c2ccc(/C=C/c3ccc(NC(=O)Nc4ccc(/C=C/c5ccc(N6N=C(C)C(N=Nc7ccccc7C(=O)O)C6=O)cc5S(=O)(=O)O)cc4S(=O)(=O)O)c(S(=O)(=O)O)c3)c(S(=O)(=O)O)c2)C(=O)C1N=Nc1ccccc1C(=O)O (stereo not drawn) [Example 5, N,N'-Bis(trans-4-{2-[4-(3-methyl-5-oxo-4-(o-carboxyphenylazo)-4,5-dihydro-1.H.-pyrazol-1-yl)-2-sulfo-phenyl]-vinyl}-2-sulfophenyl)-urea tetrasodium salt] | – | – | – | 7.15 | –
